Measured values: publication PMC9727064, “Performance assessment and economic analysis of a human Liver-Chip for predictive toxicology” (Communications Medicine, 2022)
Structures can show the parent of a compound that is named as a salt. Where two headings read alike, the source gives them in different places.

Assays:
[1] = test system: human Liver-Chip (primary human hepatocytes); test: Liver-Chip albumin production in top channel effluent (ELISA); format: cell-based; conditions: expanded drug list; lowest multiplier causing a 50% reduction in albumin production; donor 1
Text: (§1) Cycles 1 to 4 tested 6–8 concentrations in duplicate for each of 10–13 drugs. To determine which sampling strategy was optimal for cycles 1 to 4 (16 doses × 1 replicate, 8 × 2, 5 × 3, or 4 × 4), we generated three different “dose-response” synthetic datasets, each distorted by different noise levels (low, medium, or high). For each of these datasets, we performed curve-fitting analyses and calculated the Root Mean Square Error between the “true” and estimated IC50 parameter. […] Some drugs were also repeated across cycles (on different donors or at different concentrations) to ensure experimental robustness. However, to replicate a more typical study design likely to be carried out by scientists in the pharmaceutical industry, we created cycle 5 with 6 drugs, where each was tested in 4 concentrations in triplicate. For each cycle, chips were dosed with drug over 8 days (referred to as Day 0 through Day 7).
(§2) The drug dosing concentrations were determined from the unbound human Cmax of each drug. First, the expected fraction of drug unbound in media with 2% FBS was extrapolated from plasma binding data for each drug. Dosing concentrations were then back calculated such that the unbound fraction in media would reflect relevant multiples of unbound human Cmax (Supplementary Data 1).
(§3) On the first dosing day (Day 0), all chips were imaged using the ECHO microscope. Five hundred microliters of effluent was collected from all four reservoirs of the pod and placed in a labeled 96-well plate. After collection, all the remaining media was carefully aspirated before dosing with 3.8 mL of corresponding dosing solution. Dosing occurred on study days 0, 2, and 4 for chips flowing at 30 µL/h, and on days 0, 1, 2, 3, 4, 5, and 6 for chips flowing at 150 µL/h. Effluent collection occurred on days 1, 3, and 7.
(§4) Top channel outlet effluents were analyzed to quantify albumin and alanine transaminase (ALT) levels on days 1, 3, and 7 using sandwich ELISA kits (Abcam, Albumin ab179887, ALT ab234578) according to vendor-provided protocols. Frozen (−80 °C) effluent samples were thawed overnight at 4 °C prior to assay. The Hamilton Vantage liquid handling platform was used to manage effluent dilutions (1:500 for albumin, neat for ALT), preparation of standard curves, and addition of antibody cocktail. Absorbance at 450 nm was measured using the SynergyNeo Microplate Reader (BioTek).
All statistical analyses were conducted in R[21] (version 4.1.2) and figures were produced using the R package ggplot2[22] (version 3.3.5). The dose-response analysis (Fig. 4) was carried out using the popular drc R package developed by Ritz et al.[23] using the generalized log-logistic dose-response model. The error bars in Figs. 3 and 4, correspond to the standard errors of the mean. The circles in Fig. 3 correspond to the samples used to calculate the corresponding statistics. The analysis of significance in Fig. 3 was performed using paired t-test across different days (same donor) and unpaired t-test across different donors (same day). In Fig. 3 the number of samples used were n = 3 for donor two, and n = 4 for donor three. For both donors, the number of the freshly thawed hepatocyte samples used to estimate the corresponding log2(Fold Change) were n = 4. Finally, the analysis of significance in Fig. 3 was performed using paired t-test.

[2] = cited from earlier work
[3] = test system: human Liver-Chip (primary human hepatocytes); test: Liver-Chip alanine transaminase (ALT) release in top channel effluent (ELISA); format: cell-based
Text: as §1, §2, §3, §4

[4] = test system: human Liver-Chip (hepatocytes and non-parenchymal cells); conditions: for Morphology Donor 1: human
Experimental: At least four to six brightfield images were acquired per chip for morphology analysis. […] Brightfield images were acquired across three fields of view on days 1, 3, and 7 for each cycle. Cytotoxicity classification was performed while acquiring images for both NPCs and hepatocytes. Images were then scored zero to four by blinded individuals (n = 2) based on severity of agglomeration of cell debris for both channels. The scoring matrix and representative images have been included in the supplement (Supplementary Fig. 1).
Hepatocyte layer on Chips
Non-parenchymal cell layer on Chips
Supplementary Figure 1. (a) Representative brightfield images to depict the cellular morphology score in the top channel of the Liver-Chip which contains hepatocytes. A score of 0 represents no hepatotoxicity detected, which is defined by 95-100% healthy hepatocyte morphology, hexagonal shape containing binucleated cells, clear cell cytoplasm, distinctive cell junctions and less than 5% dead cells. A score of 1 […]
cells. A score of 2 represents mild hepatotoxicity with > 70% monolayer of hepatocytes visible, evidence that cells have begun to lose their distinct cell junctions, many cells contain a granulated cytoplasm but < 30% are dead cells. A score of 3 represents moderate hepatotoxicity with severe granulation of cytoplasm and most of the cells have lost their junctions. Approximately 50% of the cells are considered dead. A score of 4 represents severe hepatotoxicity with agglomeration of cell debris and > 50% of the cells are considered dead. The pores on the membrane become visible as there is no longer a cellular monolayer. (b) Representative brightfield images to depict the cellular morphology score in the bottom channel of the Liver-Chip which contains non-parenchymal cells. A score of 0 represents no cytotoxicity detected, with an intact monolayer and <1% of the cells are dead. A score of 1 represents at least 90% of the monolayer is present and there are <10% dead cells. A score of 2 represents mild cytotoxicity with > 80% of the monolayer present and < 20% are dead cells. A score of 3 represents moderate cytotoxicity with > 50% of the monolayer present and < 50% are dead cells. A score of 4 represents severe cytotoxicity with > 50% of the cells are considered dead. (bar, 50 μm). […]

[5] = test system: human Liver-Chip (hepatocyte layer); test: Liver-Chip immunofluorescence imaging (caspase 3/7, TMRM, AdipoRed/LipidTOX); format: cell-based
Experimental: Chips were detached from pods and washed once with PBS. […] Afterwards, chips were washed with PBS and stored at 4 °C until staining. Following fixation, chips corresponding to low, medium, and high concentrations from each group were cut in half with a razor blade perpendicular to the co-culture channels. One half was used in the following staining protocol, while the other half was stored for future staining. All stains and washes utilized the bubble method, in which a small amount of air is flowed through the channel prior to bulk wash media to prevent a liquid-liquid dilution of the staining solution. […] Following 15 minutes of incubation at room temperature, each channel was washed with 200 µL of PBS (alternating channels, 2× for top and 3× for bottom). As an alternative lipid accumulation marker, 100 µL of HCS LipidTOX Deep Red (ThermoFisher, H34477) was diluted 1:1000 v/v in PBS with NucBlue counterstain and added to the top channel. After a 30 min incubation at room temperature, the chips were again allowed to reach room temperature before the channels were alternatively washed with 200 µL of PBS, the bottom channel undergoing three washes and the top channel undergoing two. Chips were then imaged using the Opera Phenix. Following lipid and DAPI staining and imaging, chips were stained with a […] (MRP2) antibody to visualize the bile canalicular structures characteristic of healthy Liver-Chips. […] Then, each channel was washed with 200 µL of PBS (alternating channels, 2× for top and 3× for bottom). […] Next, primary antibody Mouse anti-MRP2 (Abcam, ab3373) was prepared 1:100 in the original blocking buffer, diluted 1:4 in PBS. 100 µL of solution was added to each channel, and chips were stored overnight at 4 °C. The following day, each channel was washed with 200 µL of PBS (alternating channels, 2× for top and 3× for bottom). […] 100 µL of solution was added to each channel and chips incubated at room temperature, protected from light, for two hours. Then, each channel was washed with 200 µL of PBS (alternating channels, 2× for top and 3× for bottom). Chips were imaged immediately or stored at 4 °C until ready for imaging on the Opera Phenix. Chip replicates designated for live cell imaging were washed with PBS utilizing the bubble method. Chips were then cut in half perpendicular to the co-culture channels. […] The bottom chips halves were stained with NucBlue (Thermo) to visualize nuclei and Tetramethylrhodamine, methyl ester (TMRM) (ThermoFisher, I34361) to visualize active mitochondria. This staining panel was prepared in PBS with 5% FBS, with NucBlue at 2 drops per mL and TMRM at a 1:1000 ratio in original blocking buffer, diluted 1:4 in PBS. Chips were incubated in the dark at 37 °C for 30 min, and then each channel was washed with 200 µL of PBS (alternating channels, 2× for top and 3× for bottom). The chips were kept at 37 °C, protected from light, until ready for imaging with the Opera Phenix. Fluorescent confocal image acquisition was performed using the Opera Phenix High-Content Screening System and Harmony 4.9 Imaging and Analysis Software (PerkinElmer). Before acquisition, the Phenix internal environment was set to 37 °C and 5% CO2. […] Whole chips were placed directly into each slot, while top and bottom half chips were matched and combined in one chip slot. Chips were aligned flush with the adapter and one another. Any bubbles identified from visual inspection were washed out with PBS. Once ready, the stained chips were covered with transparent plate film to seal channel ports and loaded into the Phenix. […] Z-stacks were generated with 3.6 µm between slices for 28–32 planes so that the epithelium was located around the center of the stack. […] Raw images from fixed and live imaging were exported in TIFF format from the Harmony software. Using scripts written for FIJI (ImageJ), TIFFs across three color channels and multiple z-stacks were compiled into composite images for each field of view in each chip. […]

human Liver-Chip = test: Liver-Chip DILI prediction: minimum toxic concentration and margin of safety (MOS)-like figure; conditions: free IC50 concentration in the assay divided by total concentration of drug in human plasma at Cmax;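 further: Toxic concentration is the lowest across albumin IC50 and ALT and morphology endpoints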
Text: Because the fundamental principles of drug action dictate that free (unbound) drug concentrations drive drug effects, we explored an alternative methodology for calculating the MOS-like values by accounting for protein binding using a previously reported approach. Accordingly, we reanalyzed the findings for the 27 drugs in our study by accounting for protein binding.

[6] = test system: 3D spheroid cultures of primary human hepatocytes; conditions: cited from earlier work
[7] = test system: clinical drug-induced liver injury; conditions: clinical DILI severity category 1 to 5; cited from earlier work
[8] = plasma, cited from earlier work
[9] = human, total plasma Cmax, ref Proctor, W.R. et al. (29)

Question: Which “Albumin IC50 Donor 1” value [1] does the source give for C[C@]12CC[C@@H]3c4ccc(O)cc4CC[C@H]3[C@@H]1CC[C@@H]2O [Beta-Estradiol] here?
Answer: >300 unbound human Cmax multiplier

Question: What about the “Human Cmax Total” value ([2]; human, total plasma Cmax, ref Sivapalasingam, S. & Steigbigel, N. H. (67)) of the same compound?
Answer: 0.0006 µM

Question: What does the source list for O=C1CC2(CCCC2)CC(=O)N1CCCCN1CCN(c2ncccn2)CC1 [Buspirone]?
Answer: ALT Donor 1 ([3]; lowest concentration causing an increase in ALT protein): > 300 multiples of the unbound human Cmax; Morphology Donor 1 [4]: >300 multiples of the unbound human Cmax; IF imaging Donor 1 ([5]; matched pair analysis): Apoptosis; Chip MOS donor 1 (human Liver-Chip): >15; Human Cmax Total [2, 9]: 0.009 µM; Spheroid MOS ([6]; 3D hepatic spheroids, previously published data): 16,300; Spheroid false negative ([6]; Yes/No, also No for drugs not tested in spheroid): No; Garside DILI rank [7]: 4

Question: With CN(C)CCC(c1ccc(Cl)cc1)c1ccccn1 (stereo not shown) [Chlorpheniramine maleate] as the compound, how does the “Human Cmax Total” value [2, 9] read?
Answer: 0.04 µM

Question: With CN(C)CCC(c1ccc(Cl)cc1)c1ccccn1 (stereo not shown) [Chlorpheniramine] as the compound, how does the “Chip MOS donor 1” value (human Liver-Chip) read?
Answer: >200

Question: What about the “Garside DILI rank” value [7] of the same compound?
Answer: 3

Question: What does the source list for CN1CCN(C2=Nc3cc(Cl)ccc3Nc3ccccc32)CC1 [Clozapine]?
Answer: Chip MOS both donors (human Liver-Chip; both donors): 1.8; Chip MOS donor 1 (human Liver-Chip): 1.8; Chip MOS donor 2 (human Liver-Chip; donor 2): 5; Human Cmax Total [2, 9]: 2.4 µM; Expected Fraction Unbound in Plasma ([8]; ref Lau, S.W.J. (65)): 0.055

Question: With O=C(O)Cc1ccccc1Nc1c(Cl)cccc1Cl [Diclofenac sodium] as the compound, how does the “Human Cmax Total” value [2, 9] read?
Answer: 10.1 µM

Question: And the “Expected Fraction Unbound in Plasma” value ([8]; ref Lau, S.W.J. (65))?
Answer: 0.005

Question: For O=C(O)Cc1ccccc1Nc1c(Cl)cccc1Cl [Diclofenac], which “ALT change in words” value ([3]; Liver-Chip effluent) is on record?
Answer: no elevation of ALT

Question: What about the “ALT Donor 1” value ([3]; expanded drug list, lowest concentration causing an increase in ALT release) of the same compound?
Answer: > 1000 unbound human Cmax multiplier

Question: What about the “Morphological injury score change in words” value [4] of the same compound?
Answer: concentration and time-dependent changes

Question: And the “Morphology Donor 1” value [4]?
Answer: 1000 unbound human Cmax multiplier

Question: What about the “Immunofluorescence staining result in words” value ([5]; caspase 3/7 (apoptosis) or TMRM (mitotoxicity), 7 days) of the same compound?
Answer: apoptosis-mediated cell death

Question: What about the “Immunofluorescent findings, donor one (Supplementary Figure 3)” value ([5]; day 7 post-drug administration, hepatocyte layer, top channel, donor one) of the same compound?
Answer: Apoptosis

Question: And the “IF imaging Donor 1” value ([5]; expanded drug list)?
Answer: Apoptosis

Question: And the “Chip MOS donor 1” value (human Liver-Chip)?
Answer: 1.8

Question: And the “Spheroid MOS” value [6]?
Answer: 6.1

Question: Which “Human Cmax Total” value [2, 9] does the source give for CCc1nn(CCCN2CCN(c3cccc(Cl)c3)CC2)c(=O)n1CCOc1ccccc1 [Nefazodone hydrochloride] here?
Answer: 4.3 µM

Question: Which results are given for Cc1cc2c(cc1CC(=O)c1sccc1S(=O)(=O)[N-]c1onc(C)c1Cl)OCO2.[Na+] [Sitax(s)entan sodium salt]?
Answer: Human Cmax Total ([2]; human, total plasma Cmax, ref National Center for Biotechnology Information (73)): 28.6 µM; Expected Fraction Unbound in Plasma ([8]; reference data from the literature, no reference): 0.01

Question: What does the source list for N[C@@H]1[C@H]2CN(c3nc4c(cc3F)c(=O)c(C(=O)O)cn4-c3ccc(F)cc3F)C[C@@H]12 [Trovafloxacin mesylate]?
Answer: Human Cmax Total ([2]; human therapeutic total plasma Cmax from literature, ref Xu, J. J. et al. (36)): 5 µM; Human Cmax Total ([2]; human, total plasma Cmax, ref Xu, J. J. et al. (36)): 5 µM
